Where a name gives a salt, the structure may show the parent alone.
Assays:
[1] = molecular target: T1, human GABA-B1b/rat GABA-B2 (UniProt O88871+Q9UBS5); assay: GTPγ[35S] binding, enhancement of GABA-induced binding; format: biochemical; conditions: relative to basal activity
T1 construct: expressed in transfected cells; host or cells: CHO-K1 cell line (membranes)
Description: In the functional GTP(γ)^35S assay (Lorenzen A, Fuss M, Vogt H, Schwabe U. Measurement of guanine nucleotide-binding protein activation by A1 adenosine receptor agonists in bovine brain membranes. Stimulation of guanosine-5′-O-(3-[^35S]thio)triphosphate binding. Mol. Pharmacol. 1993; 44:115-123) the agents of the invention enhance the GABA-induced GTP( ? )^35S binding at recombinant GABAB receptors with EC50 values of about 0.1 μM to about 50 μM.
GTPγ[^35S] binding. The assay mixtures contained 10 μg f membranes from a human GABA-B1b/rat GABA-B2 expressing CHO-K1 cell line in 50 mM Tris-HCl buffer, pH 7.7; 10 mM MgCl2; 1.8 mM CaCl2; 100 mM NaCl 30 μM guanosine 5′-diphosphate (30 μM; Sigma), 0.2 nM [^35S]GTP(γ)S, and test compounds (Urwyler et al, 2001). 96-well Packard Pico-plates (300 μl volume) were used. Non-specific binding was measured in the presence of unlabelled GTP(γ)S (10 μM, Sigma). The reagents were incubated for 40 min at room temperature and subsequently filtered (Packard unifilter-GF/C). After two washes with assay buffer as above the plates were dried for one hour at 50° C., 50 μl of scintillation solution (Microscint) was added and the radioactivity counted. For data analysis, non-specific binding was subtracted from all the other values; the compound effects were expressed relative to basal activity. Prism 3.0 software (Graph Pad software, San Diego, Calif.) was used for all data calculations. (Urwyler S, Mosbacher J, Lingenhoehl K, Heid J, Hofstetter K, Froestl W, Bettler B, Kaupmann K. Mol. Pharmacol. 2001, 60:963-71).

T1 sequence (Q9UBS5 1-844 isoform Q9UBS5-2): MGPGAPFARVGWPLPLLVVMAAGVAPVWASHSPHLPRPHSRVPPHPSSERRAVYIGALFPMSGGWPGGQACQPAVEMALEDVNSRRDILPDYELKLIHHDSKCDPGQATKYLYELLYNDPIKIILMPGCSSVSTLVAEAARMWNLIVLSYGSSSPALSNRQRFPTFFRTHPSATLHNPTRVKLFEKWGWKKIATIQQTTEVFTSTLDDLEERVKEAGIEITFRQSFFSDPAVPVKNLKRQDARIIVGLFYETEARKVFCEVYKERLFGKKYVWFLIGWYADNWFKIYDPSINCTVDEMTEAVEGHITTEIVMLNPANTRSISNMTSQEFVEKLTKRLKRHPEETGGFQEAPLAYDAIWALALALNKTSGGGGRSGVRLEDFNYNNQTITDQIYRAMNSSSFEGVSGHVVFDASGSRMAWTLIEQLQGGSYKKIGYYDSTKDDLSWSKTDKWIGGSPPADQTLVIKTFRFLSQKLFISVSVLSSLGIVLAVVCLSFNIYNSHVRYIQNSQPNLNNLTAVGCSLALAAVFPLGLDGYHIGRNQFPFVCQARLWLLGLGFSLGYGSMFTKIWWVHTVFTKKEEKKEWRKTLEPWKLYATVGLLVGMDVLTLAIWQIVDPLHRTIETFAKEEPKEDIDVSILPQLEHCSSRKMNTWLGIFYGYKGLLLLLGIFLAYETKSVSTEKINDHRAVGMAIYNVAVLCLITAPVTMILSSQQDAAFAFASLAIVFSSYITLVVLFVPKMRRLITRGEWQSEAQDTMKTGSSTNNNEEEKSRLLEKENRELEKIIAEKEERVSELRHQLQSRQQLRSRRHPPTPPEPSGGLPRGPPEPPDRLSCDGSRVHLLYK
T1 sequence (O88871 41-940): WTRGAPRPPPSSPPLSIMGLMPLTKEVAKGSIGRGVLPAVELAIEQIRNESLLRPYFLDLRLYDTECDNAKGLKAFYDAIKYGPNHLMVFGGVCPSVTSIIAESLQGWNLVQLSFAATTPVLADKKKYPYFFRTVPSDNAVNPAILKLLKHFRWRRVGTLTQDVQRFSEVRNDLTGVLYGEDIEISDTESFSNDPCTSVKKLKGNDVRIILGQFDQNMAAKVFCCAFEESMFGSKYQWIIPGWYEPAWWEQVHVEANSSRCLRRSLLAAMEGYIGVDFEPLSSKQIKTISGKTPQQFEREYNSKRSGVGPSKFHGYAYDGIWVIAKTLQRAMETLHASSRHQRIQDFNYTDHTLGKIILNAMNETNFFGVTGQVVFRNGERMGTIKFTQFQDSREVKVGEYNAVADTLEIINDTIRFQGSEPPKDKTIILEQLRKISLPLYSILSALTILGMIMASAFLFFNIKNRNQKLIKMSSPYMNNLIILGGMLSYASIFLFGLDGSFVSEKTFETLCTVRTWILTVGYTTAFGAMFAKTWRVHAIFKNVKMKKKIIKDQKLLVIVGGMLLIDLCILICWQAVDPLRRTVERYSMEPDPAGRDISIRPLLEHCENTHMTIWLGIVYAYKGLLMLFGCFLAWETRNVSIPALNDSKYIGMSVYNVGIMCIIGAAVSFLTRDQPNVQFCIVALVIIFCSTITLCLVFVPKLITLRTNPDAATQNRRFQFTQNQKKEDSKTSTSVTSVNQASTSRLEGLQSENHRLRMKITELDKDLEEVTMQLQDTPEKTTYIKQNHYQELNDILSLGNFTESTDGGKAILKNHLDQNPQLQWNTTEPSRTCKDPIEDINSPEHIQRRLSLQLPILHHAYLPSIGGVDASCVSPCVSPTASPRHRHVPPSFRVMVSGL

## Cc1ncc(-c2ccc(Cl)cc2)c(NC2CCCC2)n1
other
  melting point: 103 to 106 °C

## Cc1ncc(-c2cnc(C(F)(F)F)nc2)c(NC2CCCC2)n1 (as salt: hydrochloride) [Example 54, N-cyclopentyl-2-methyl-2′-(trifluoromethyl)-5,5′-bipyrimidin-4-amine hydrochloride]
other
  melting point: 249 to 254 °C

## Cc1ccc(-c2c(NC3CCCC3)nc(C)nc2NC2CCCC2)cc1 [Example 20, 5-(4-methylphenyl)-N,N′-dicyclopentyl-2-methylpyrimidine-4,6-diamine]
other
  melting point: 115 to 128 °C

## Cc1cccc(-c2c(NC3CCCC3)nc(C)nc2NC2CCCC2)c1 [Example 22, 5-(3-methylphenyl)-N,N′-dicyclopentyl-2-methylpyrimidine-4,6-diamine]
other
  melting point: 95 to 98 °C

## Cc1ncc(-c2ccc(C(=O)O)cc2)c(NC2CCCC2)n1 [Example 27, 4-[4-(cyclopentylamino)-2-methylpyrimidin-5-yl]benzoic acid]
other
  melting point: 252 to 255 °C

## Cc1ncc(-c2cccc(C(F)(F)F)c2)c(NC2CCCC2)n1 [Example 29, N-cyclopentyl-2-methyl-5-[3-(trifluoromethyl)phenyl]pyrimidin-4-amine]
other
  melting point: 105 to 108 °C

## Cc1ncc(-c2cc(C(F)(F)F)cc(C(F)(F)F)c2)c(NC2CCCC2)n1 [Example 30, 5-[3,5-bis(trifluoromethyl)phenyl]-N-cyclopentyl-2-methylpyrimidin-4-amine]
other
  melting point: 124 to 126 °C

## COc1ccc(-c2cnc(C)nc2NC2CCCC2)cc1OC [Example 31, N-cyclopentyl-5-(3,4-dimethoxyphenyl)-2-methylpyrimidin-4-amine]
other
  melting point: 143 to 145 °C

## Cc1ncc(-c2ccc(C(N)=O)cc2)c(NC2CCCC2)n1 [Example 32, 4-[4-(cyclopentylamino)-2-methylpyrimidin-5-yl]benzamide]
other
  melting point: 226 to 228 °C

## Cc1ncc(-c2ccc([N+](=O)[O-])cc2)c(NC2CCCC2)n1 [Example 33, N-cyclopentyl-2-methyl-5-(4-nitrophenyl)pyrimidin-4-amine]
other
  melting point: 185 to 188 °C

## Cc1ncc(-c2ccc(C#N)cc2)c(NC2CCCC2)n1 [Example 36, 4-[4-(cyclopentylamino)-2-methylpyrimidin-5-yl]benzonitrile]
other
  melting point: 176 to 180 °C

## Cc1ncc(-c2ccc(F)cc2)c(NC2CCCC2)n1 [Example 39, N-cyclopentyl-5-(4-fluorophenyl)-2-methylpyrimidin-4-amine]
other
  melting point: 83 to 86 °C

## Cc1ncc(-c2ccc(C(F)(F)F)cc2C(F)(F)F)c(NC2CCCC2)n1 [Example 41, 5-[2,4-bis(trifluoromethyl)phenyl]-N-cyclopentyl-2-methylpyrimidin-4-amine]
other
  melting point: 128 to 132 °C

## Cc1ncc(-c2ccccc2C(F)(F)F)c(NC2CCCC2)n1 [Example 44, N-cyclopentyl-2-methyl-5-[2-(trifluoromethyl)phenyl]pyrimidin-4-amine]
other
  melting point: 80 to 84 °C

## Cc1ncc(-c2ccc(C(F)(F)F)cc2Cl)c(NC2CCCC2)n1 [Example 45, 5-[2-chloro-4-(trifluoromethyl)phenyl]-N-cyclopentyl-2-methylpyrimidin-4-amine]
other
  melting point: 120 to 132 °C

## CC(=O)Nc1ccc(-c2cnc(C)nc2NC2CCCC2)cc1 [Example 46, N-{4-[4-(cyclopentylamino)-2-methylpyrimidin-5-yl]phenyl}acetamide]
other
  melting point: 203 to 210 °C

## Cc1ncc(-c2ccc(C(F)(F)F)cn2)c(NC2CCCC2)n1 [Example 47, Cyclopentyl-[2-methyl-5-(5-trifluoromethyl-pyridin-2-yl)-pyrimidin-4-yl]-amine]
other
  melting point: 130 to 133 °C

## Cc1ncc2c3ccc(C(F)(F)F)cc3n(C3CCCC3)c2n1 [Example 48, 9-cyclopentyl-2-methyl-7-(trifluoromethyl)-9H-pyrimido[4,5-b]indole]
other
  melting point: 133 to 134 °C

## Cc1ncc(-c2ccc3nonc3c2)c(NC2CCCC2)n1 [Example 49, 5-(2,1,3-benzoxadiazol-5-yl)-N-cyclopentyl-2-methylpyrimidin-4-amine]
other
  melting point: 165 to 167 °C

## C#Cc1nc(C)nc(NC2CCCC2)c1-c1ccc(C(F)(F)F)cc1 [Example 50, N-cyclopentyl-6-ethynyl-2-methyl-5-[4-(trifluoromethyl)phenyl]pyrimidin-4-amine]
other
  melting point: 159 to 162 °C

## Cc1ncc(-c2ccc(P(=O)(O)O)cc2)c(NC2CCCC2)n1 [Example 51, {4-[4-(cyclopentylamino)-2-methylpyrimidin-5-yl]phenyl}-phosphonic acid]
other
  melting point: 254 to 259 °C

## Cc1ncc2c3ccc(C(F)(F)F)cc3c(=O)n(C3CCCC3)c2n1 [Example 53, 5-cyclopentyl-3-methyl-8-(trifluoromethyl)pyrimido[4,5-c]-isoquinolin-6(5H)-one]
other
  melting point: 137 to 141 °C

## Cc1ncc(C#Cc2ccc(C(F)(F)F)cc2)c(NC2CCCC2)n1 [Example 55, N-cyclopentyl-2-methyl-5-{[4-(trifluoromethyl)phenyl]ethynyl}-pyrimidin-4-amine]
other
  melting point: 90 to 93 °C

## Cc1ncc(-c2ccc(C(F)(F)F)cc2)c(NC2CCCCNC2=O)n1 (centres unmarked) [Example 62, 3-[2-Methyl-5-(4-trifluoromethyl-phenyl)-pyrimidin-4-ylamino]-azepan-2-one]
[1]; 1 μM of GABA, 2.5 μM of Cpd
  Biological activity (%): 77%
[1]; 1 μM of GABA, 25 μM of Cpd
  Biological activity (%): 129%
[1]; 20 μM of GABA, 2.5 μM of Cpd
  Biological activity (%): 159%
[1]; 20 μM of GABA, 25 μM of Cpd
  Biological activity (%): 192%
other
  melting point: 191 to 196 °C

## CCc1nc(NC2CCCC2)c(-c2ccccc2)c(NC2CCCC2)n1 [Example 65, N,N′-Dicyclopentyl-2-ethyl-5-phenyl-pyrimidine-4,6-diamine]
other
  melting point: 70 to 71 °C

— patent US20100179127A1, “PYRIMIDINE DERIVATIVES” (priority 2005, published 2010)
